Read-outs that look alike come from different tables or passages of the source.
Legend:
Format in all cases: cell-based
[1] = system: LPS-stimulated heparinized whole human blood; test: Release of IL1β, TNFα and IL6 in LPS-stimulated heparinized whole human blood; settings: 24 h
Method: In another assay, heparinized whole human blood was preincubated for 1 h with different concentrations of the compounds and then stimulated with LPS for 24 h. Commercially available test kits were used to measure the release of IL1β, TNFα and IL6 in the supernatant after 24 h, and the IC50 for the given compound was determined.

[2] = system: IL1 β-stimulated human peripheral blood lymphocytes; test: Cytokine release in IL1β-stimulated human peripheral blood lymphocytes (ELISA); settings: Lymphocyte
Method: The pyrazoloisoquinoline derivatives according to the invention were tested for inhibitory activity against NIK in various in vitro assay systems. In this connection, human peripheral blood lymphocytes were preincubated for 1 h with different concentrations of the compounds and then stimulated for 24 h with LPS or IL1 β. […] The cytotoxicity was measured by way of LDH release using a commercially obtainable test kit and the LD50 for the given compound was determined.

[3] = system: human peripheral blood lymphocytes; test: Cytotoxicity by LDH release
Method: (§1) The pyrazoloisoquinoline derivatives according to the invention were tested for inhibitory activity against NIK in various in vitro assay systems. In this connection, human peripheral blood lymphocytes were preincubated for 1 h with different concentrations of the compounds and then stimulated for 24 h with LPS or IL1 β. After that, a commercially obtainable ELISA test kit was used to measure the release of TNFα in the culture supernatant, and the IC50 for the given compound was determined. The cytotoxicity was measured by way of LDH release using a commercially obtainable test kit and the LD50 for the given compound was determined.

[4] = system: LPS-stimulated human peripheral blood lymphocytes; test: Cytokine release in LPS-stimulated human peripheral blood lymphocytes (ELISA); settings: Lymphocyte
Method: as §1

[5] = 1 h preincubation, 24 h stimulation, read-out: TNFα release IC50
[6] = IL1 β-stimulated human peripheral blood lymphocytes (Table 2)
[7] = LPS-stimulated human peripheral blood lymphocytes (Table 1)

Structure (SMILES): Cc1n[nH]c2c1nc(-c1cccc(O)c1)c1ccccc12 [Example 3, 3-(3-Methyl-1H-pyrazolo[4,3-c]isoquinolin-5-yl)phenol]
- IC50 ([1]; read-out: IL1β release IC50): 29 µM
- IC50 ([1]; read-out: IL6 release IC50): > 100 µM
- IC50 ([1]; read-out: TNFα release IC50): 5 µM
- IC50 [2, 5]: 8 µM
- IC50 ([2]; read-out: IL6 release IC50): > 100 µM
- Cytotoxicity LD50 [3, 6]: > 100 µM
- Cytotoxicity LD50 [3, 7]: > 100 µM
- IC50 [4, 5]: 7.5 µM
- IC50 ([4]; read-out: IL6 release IC50): 80 µM

Structure (SMILES): COc1cccc(-c2nc3c(C)n[nH]c3c3ccccc23)c1 [Example 2, 5-(3-Methoxyphenyl)-3-methyl-1H-pyrazolo[4,3-c]isoquinoline]
- IC50 ([1]; read-out: IL1β release IC50): 1.3 µM
- IC50 ([1]; read-out: IL6 release IC50): 7 µM
- IC50 ([1]; read-out: TNFα release IC50): 1.2 µM
- IC50 [2, 5]: 35 µM
- IC50 ([2]; read-out: IL6 release IC50): > 100 µM
- Cytotoxicity LD50 [3, 6]: > 100 µM
- Cytotoxicity LD50 [3, 7]: > 100 µM
- IC50 [4, 5]: 9 µM
- IC50 ([4]; read-out: IL6 release IC50): > 100 µM

Structure (SMILES): c1ccc(-c2nc3c(-c4ccccc4)n[nH]c3c3ccccc23)cc1 [Example 1, 3,5-Diphenyl-1H-pyrazolo[4,3-c]isoquinoline]
- IC50 ([1]; read-out: IL1β release IC50): 33 µM
- IC50 ([1]; read-out: IL6 release IC50): > 100 µM
- IC50 ([1]; read-out: TNFα release IC50): 12.5 µM
- IC50 [2, 5]: 5 µM
- IC50 ([2]; read-out: IL6 release IC50): 80 µM
- Cytotoxicity LD50 [3, 6]: >100 µM
- Cytotoxicity LD50 [3, 7]: > 100 µM
- IC50 [4, 5]: 1.9 µM
- IC50 ([4]; read-out: IL6 release IC50): 80 µM

Reference: patent EP1644371B1, “PYRAZOLOISOQUINOLINE DERIVATIVES AS KINASE INHIBITORS” (Aventis Pharmaceuticals Inc., priority 2003, dated 2005)
